Test systems include OVCAR-8 ovarian; HCT-116 colon; MOLT-4 leukemia; SF-295 CNS; SW-620 colon; EKVX NSCLC; SK-MEL-2 melanoma; CCRF-CEM leukemia; MALME-3M melanoma; NCI-H23 lung.
Common to all, as to experiment: NCI tumour cell line growth inhibition, 48 h

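Tested at 5 concentrations; 48 h exposure; 96-well plates; endpoints linearly interpolated, else capped at highest concentration. GI50: concentration for 50% inhibition of growth. TGI is the concentration that stops growth completely.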 Some results are limits rather than exact numbers.

For `Cn1c(Sc2ccc(-c3cccnc3)n2C)ccc1-c1cccnc1`, the TGI with OVCAR-8 ovarian is 41.2 µM; in the assay on HCT-116 colon it was 25.7 µM; in the assay on MOLT-4 leukemia, 7.78 µM; with SF-295 CNS, 38.6 µM; with SW-620 colon, 23.6 µM; with EKVX NSCLC it was more than 56.8 µM. Also, the TGI in the assay with SK-MEL-2 melanoma is 30.1 µM; with CCRF-CEM leukemia it was 4.53 µM; in the assay on MALME-3M melanoma it was 23.3 µM; in the assay on NCI-H23 lung, 34.8 µM.
Turning to `NNc1ccccc1Cl`, the TGI with OVCAR-8 ovarian, in the assay with HCT-116 colon, with MOLT-4 leukemia, in the assay on SF-295 CNS, in the assay on SW-620 colon and in the assay on EKVX NSCLC was more than 100 µM in each case. In addition, the TGI with SK-MEL-2 melanoma, in the assay with CCRF-CEM leukemia, in the assay on MALME-3M melanoma and in the assay with NCI-H23 lung was more than 100 µM in each case.
Turning to `Nc1nnc(N)n1NC(=O)C(=O)Nc1ccc([N+](=O)[O-])cc1`, the TGI with OVCAR-8 ovarian, in the assay on HCT-116 colon, in the assay on MOLT-4 leukemia, with SF-295 CNS, with SW-620 colon and with EKVX NSCLC was more than 100 µM in each case. For the same compound, the TGI in the assay on SK-MEL-2 melanoma, in the assay with CCRF-CEM leukemia, in the assay on MALME-3M melanoma and with NCI-H23 lung was more than 100 µM in each case.
In the case of `COc1cc(S(=O)(=O)Nc2nc(-c3ccc(N)cc3)cs2)ccc1Cl`, the TGI in the assay with OVCAR-8 ovarian, in the assay with HCT-116 colon, in the assay with MOLT-4 leukemia, in the assay with SF-295 CNS, in the assay on SW-620 colon and in the assay on EKVX NSCLC was more than 100 µM in each case. For the same compound, the TGI in the assay with SK-MEL-2 melanoma, in the assay on CCRF-CEM leukemia, in the assay with MALME-3M melanoma and in the assay with NCI-H23 lung was more than 100 µM throughout.
For the compound `COc1cc(O)c2c(c1)C(=O)c1cc(C)cc(O)c1C2=O`, the TGI in the assay on OVCAR-8 ovarian, in the assay with HCT-116 colon, with MOLT-4 leukemia, in the assay on SF-295 CNS, in the assay on SW-620 colon and with EKVX NSCLC was more than 100 µM throughout. Besides, the TGI in the assay on SK-MEL-2 melanoma, with CCRF-CEM leukemia, in the assay on MALME-3M melanoma and in the assay with NCI-H23 lung was more than 100 µM in each case.
Take `Cc1cc(=O)oc2c1cc(OCC(=O)OCCN1CCCCC1)c1occ(C)c12`: the TGI in the assay with OVCAR-8 ovarian, in the assay on HCT-116 colon, with MOLT-4 leukemia, in the assay on SF-295 CNS, in the assay with SW-620 colon and with EKVX NSCLC was more than 100 µM throughout. For the same compound, the TGI in the assay with SK-MEL-2 melanoma, with CCRF-CEM leukemia, in the assay on MALME-3M melanoma and with NCI-H23 lung was more than 100 µM each time.
With `CO[C@@H]1C=C[C@@]23c4cc5c(cc4C(O)N(CC2O)C3C1)OCO5` (some centres not stated), the TGI was more than 100 µM in the assay with OVCAR-8 ovarian; 21.3 µM in the assay on HCT-116 colon; more than 100 µM with MOLT-4 leukemia; 64.1 µM in the assay with SF-295 CNS; more than 100 µM in the assay with SW-620 colon; 33.3 µM with EKVX NSCLC. Also, the TGI is 9.09 µM in the assay with SK-MEL-2 melanoma, 5.38 µM in the assay on CCRF-CEM leukemia, more than 100 µM with MALME-3M melanoma and 56.1 µM in the assay on NCI-H23 lung.
`COc1ccc(CC2c3cc(OC)c(OC)c(OC)c3CC[N+]2(C)C)cc1Oc1ccc(CC2c3cc4c(c(OC)c3CCN2C)OCO4)cc1` (configuration not stated): the TGI with OVCAR-8 ovarian, in the assay with HCT-116 colon, in the assay with MOLT-4 leukemia, in the assay on SF-295 CNS, in the assay with SW-620 colon and with EKVX NSCLC was more than 100 µM throughout. Besides, the TGI in the assay with SK-MEL-2 melanoma, with MALME-3M melanoma and in the assay with NCI-H23 lung was more than 100 µM in each case.
Take `CC(C)=CCC[C@](C)(O[C@@H]1O[C@H](CO)[C@@H](O)[C@H](O)[C@H]1O)[C@H]1CC[C@]2(C)[C@@H]1[C@H](O)C[C@@H]1[C@@]3(C)CC[C@H](O)C(C)(C)[C@@H]3[C@@H](O[C@@H]3O[C@H](CO)[C@@H](O)[C@H](O)[C@H]3O)C[C@]12C`: the TGI with OVCAR-8 ovarian, in the assay on HCT-116 colon, in the assay on SF-295 CNS, with SW-620 colon, in the assay on EKVX NSCLC and in the assay with SK-MEL-2 melanoma was more than 100 µM each time. Further, the TGI in the assay with CCRF-CEM leukemia, with MALME-3M melanoma and in the assay with NCI-H23 lung was more than 100 µM in each case.
For the compound `O=C1C[C@@H](Sc2ccccc2)C2(OCCO2)[C@H]2ON3CCC[C@@H]3[C@@H]12`, the TGI was 5.57 µM with OVCAR-8 ovarian; 2.99 µM with HCT-116 colon; 8.7 µM in the assay with MOLT-4 leukemia; 26.7 µM with SF-295 CNS; 13.5 µM in the assay with SW-620 colon; 13.3 µM with SK-MEL-2 melanoma. For the same compound, the TGI in the assay on CCRF-CEM leukemia is 5.72 µM; in the assay on MALME-3M melanoma, 4.31 µM; with NCI-H23 lung, 17.9 µM.
With `Fc1ccc(-c2nnc3sc(COc4ccccc4Cl)nn23)cc1Cl`, the GI50 in the assay with OVCAR-8 ovarian was 37.8 µM; in the assay on HCT-116 colon, 29.1 µM; in the assay on MOLT-4 leukemia, 24.5 µM; in the assay on SF-295 CNS, 61.8 µM; with SW-620 colon, 30.2 µM; with EKVX NSCLC, 39.2 µM. Moreover, the GI50 with SK-MEL-2 melanoma is 51.8 µM; in the assay on CCRF-CEM leukemia it was 20.8 µM; in the assay with MALME-3M melanoma, 70.9 µM; in the assay with NCI-H23 lung it was 33.4 µM. Moreover, the TGI in the assay with OVCAR-8 ovarian was more than 100 µM; in the assay with HCT-116 colon, more than 100 µM; in the assay with MOLT-4 leukemia it was more than 100 µM; in the assay with SF-295 CNS it was more than 100 µM; with SW-620 colon it was 74.5 µM; in the assay on EKVX NSCLC, more than 100 µM. The TGI in the assay on SK-MEL-2 melanoma was more than 100 µM; in the assay with CCRF-CEM leukemia it was 52.6 µM; with MALME-3M melanoma, more than 100 µM; in the assay with NCI-H23 lung, more than 100 µM.
`O=C(O)C1=NNC(C(=O)O)=NN1`: the TGI with OVCAR-8 ovarian, in the assay on HCT-116 colon, in the assay on MOLT-4 leukemia, with SF-295 CNS, in the assay with SW-620 colon and in the assay on EKVX NSCLC was more than 100 µM each time. For the same compound, the TGI with SK-MEL-2 melanoma, in the assay with CCRF-CEM leukemia, in the assay on MALME-3M melanoma and in the assay on NCI-H23 lung was more than 100 µM in each case.

The record behind these values is PubChem BioAssay (NCI).
